Reference: PubChem BioAssay (NCI)
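Where inhibition never reached the appropriate level, the endpoint shown equals the highest concentration tested. Otherwise, values were interpolated linearly from a five-concentration, 48-hour dose response in 96-well plates. GI50 marks 50% less growth. The concentration for full growth arrest is given as TGI.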

Legend:
Experiment in all cases: growth of human tumour cells (NCI), 48 h
EKVX NSCLC = system: EKVX NSCLC
A549 NSCLC = system: A549 NSCLC
OVCAR-8 ovarian = system: OVCAR-8 ovarian
CAKI-1 renal = system: CAKI-1 renal
OVCAR-3 ovarian = system: OVCAR-3 ovarian
T-47D breast = system: T-47D breast
NCI-H522 lung = system: NCI-H522 lung
UACC-62 melanoma = system: UACC-62 melanoma
UACC-257 melanoma = system: UACC-257 melanoma
NCI-H23 lung = system: NCI-H23 lung
HOP-62 NSCLC = system: HOP-62 NSCLC
CCRF-CEM leukemia = system: CCRF-CEM leukemia
KM12 colon = system: KM12 colon
SK-MEL-2 melanoma = system: SK-MEL-2 melanoma
SK-MEL-28 melanoma = system: SK-MEL-28 melanoma
SF-539 CNS = system: SF-539 CNS
SF-295 CNS = system: SF-295 CNS
MCF7 breast = system: MCF7 breast
OVCAR-5 ovarian = system: OVCAR-5 ovarian
LOX IMVI melanoma = system: LOX IMVI melanoma
COLO 205 colon = system: COLO 205 colon
HS 578T breast = system: HS 578T breast
DU-145 prostate = system: DU-145 prostate
HT29 colon = system: HT29 colon
M14 melanoma = system: M14 melanoma
IGROV1 ovarian = system: IGROV1 ovarian
TK-10 renal = system: TK-10 renal
BT-549 breast = system: BT-549 breast
HL-60(TB) leukemia = system: HL-60(TB) leukemia
MDA-MB-435 = system: MDA-MB-435
SN12C renal = system: SN12C renal
MALME-3M melanoma = system: MALME-3M melanoma
786-0 renal = system: 786-0 renal
SF-268 CNS = system: SF-268 CNS
UO-31 renal = system: UO-31 renal
U251 CNS = system: U251 CNS
HCT-116 colon = system: HCT-116 colon
NCI-H226 lung = system: NCI-H226 lung
SK-MEL-5 melanoma = system: SK-MEL-5 melanoma
NCI-H460 lung = system: NCI-H460 lung
A498 renal = system: A498 renal
OVCAR-4 ovarian = system: OVCAR-4 ovarian
MDA-MB-231 breast = system: MDA-MB-231 breast
NCI/ADR-RES ovarian = system: NCI/ADR-RES ovarian
SK-OV-3 ovarian = system: SK-OV-3 ovarian
PC-3 prostate = system: PC-3 prostate
MOLT-4 leukemia = system: MOLT-4 leukemia
K-562 leukemia = system: K-562 leukemia
SW-620 colon = system: SW-620 colon
ACHN renal = system: ACHN renal
HCT-15 colon = system: HCT-15 colon
SR leukemia = system: SR leukemia
HCC-2998 colon = system: HCC-2998 colon
SNB-75 CNS = system: SNB-75 CNS
HOP-92 NSCLC = system: HOP-92 NSCLC
SNB-19 CNS = system: SNB-19 CNS
RXF 393 renal = system: RXF 393 renal

## O=S(=O)(Nc1cccc(Cl)c1)c1ccc(-c2cnc(C3CC3)o2)cc1
EKVX NSCLC
  GI50: 2.88 µM
  TGI: 40.3 µM
A549 NSCLC
  GI50: 1.35 µM
  TGI: 44 µM
OVCAR-8 ovarian
  GI50: 1.95 µM
  TGI: 32.9 µM
CAKI-1 renal
  GI50: 0.232 µM
  TGI: 14 µM
OVCAR-3 ovarian
  GI50: 0.417 µM
  TGI: 12.3 µM
T-47D breast
  GI50: 0.519 µM
  TGI: 22 µM
NCI-H522 lung
  GI50: 0.509 µM
  TGI: 16.2 µM
UACC-62 melanoma
  GI50: 0.47 µM
  TGI: 15.3 µM
UACC-257 melanoma
  GI50: 6.98 µM
  TGI: 30.2 µM
NCI-H23 lung
  GI50: 2.14 µM
  TGI: 20.4 µM
HOP-62 NSCLC
  GI50: 0.74 µM
  TGI: 16.3 µM
CCRF-CEM leukemia
  GI50: 0.624 µM
  TGI: > 100 µM
KM12 colon
  GI50: 0.443 µM
  TGI: 16.6 µM
SK-MEL-2 melanoma
  GI50: 0.695 µM
  TGI: 20.3 µM
SK-MEL-28 melanoma
  GI50: 10.2 µM
  TGI: 23 µM
SF-539 CNS
  GI50: 0.683 µM
  TGI: 11.8 µM
SF-295 CNS
  GI50: 0.394 µM
  TGI: 12 µM
MCF7 breast
  GI50: 0.398 µM
  TGI: 51.6 µM
OVCAR-5 ovarian
  GI50: 2.39 µM
  TGI: 18.3 µM
LOX IMVI melanoma
  GI50: 0.617 µM
  TGI: 18.4 µM
COLO 205 colon
  GI50: 0.639 µM
  TGI: 6.18 µM
HS 578T breast
  GI50: 0.679 µM
  TGI: 16.6 µM
DU-145 prostate
  GI50: 2.68 µM
  TGI: 29.1 µM
HT29 colon
  GI50: 0.372 µM
  TGI: 12.2 µM
M14 melanoma
  GI50: 0.593 µM
  TGI: 24.3 µM
IGROV1 ovarian
  GI50: 0.662 µM
  TGI: 21.6 µM
TK-10 renal
  GI50: 5.11 µM
  TGI: 26.5 µM
BT-549 breast
  GI50: 1.25 µM
  TGI: 22.7 µM
HL-60(TB) leukemia
  GI50: 0.388 µM
  TGI: 12.3 µM
MDA-MB-435
  GI50: 0.379 µM
  TGI: 16.7 µM
SN12C renal
  GI50: 1.62 µM
  TGI: 20.9 µM
MALME-3M melanoma
  GI50: 10.3 µM
  TGI: 32 µM
786-0 renal
  GI50: 3.9 µM
  TGI: 34.8 µM
SF-268 CNS
  GI50: 3.28 µM
  TGI: 25.2 µM
UO-31 renal
  GI50: 1.68 µM
  TGI: 18.8 µM
U251 CNS
  GI50: 0.768 µM
  TGI: 19.8 µM
HCT-116 colon
  GI50: 0.48 µM
  TGI: 18.7 µM
NCI-H226 lung
  GI50: 1.9 µM
  TGI: 17.2 µM
SK-MEL-5 melanoma
  GI50: 2.01 µM
  TGI: 14.4 µM
NCI-H460 lung
  GI50: 0.446 µM
  TGI: 16.7 µM
A498 renal
  GI50: 0.453 µM
  TGI: 9.03 µM
OVCAR-4 ovarian
  GI50: 2.92 µM
  TGI: 16.7 µM
MDA-MB-231 breast
  GI50: 2.45 µM
  TGI: 22 µM
NCI/ADR-RES ovarian
  GI50: 0.581 µM
  TGI: 17 µM
SK-OV-3 ovarian
  GI50: 5.41 µM
  TGI: 24.9 µM
PC-3 prostate
  GI50: 0.668 µM
  TGI: 17.6 µM
MOLT-4 leukemia
  GI50: 0.657 µM
  TGI: 60.1 µM
K-562 leukemia
  GI50: 0.305 µM
  TGI: 66 µM
SW-620 colon
  GI50: 0.409 µM
  TGI: 31.3 µM
ACHN renal
  GI50: 0.925 µM
  TGI: 37 µM
HCT-15 colon
  GI50: 0.43 µM
  TGI: 20.3 µM
SR leukemia
  GI50: 0.409 µM
  TGI: 32.4 µM
HCC-2998 colon
  GI50: 2.87 µM
  TGI: 17.1 µM
SNB-75 CNS
  GI50: 0.208 µM
  TGI: 1.96 µM
HOP-92 NSCLC
  GI50: 1.74 µM
  TGI: 15.2 µM
SNB-19 CNS
  GI50: 1.31 µM
  TGI: 35.8 µM
RXF 393 renal
  GI50: 0.835 µM
  TGI: 10.9 µM
